In patent publication US11059718B2, “Methods and compositions using peptides and proteins with C-terminal elements” (Sanford Burnham Prebys Medical Discovery Institute, priority 2009, dated 2021):
Where no end group is shown, it is not given here. [ ]: non-standard residue; d: D form.

Columns and labels:
live, unfixed cells = assay: Binding and uptake of peptide-functionalized quantum dots by cells; assay type: cell-based; conditions: streptavidin qdots coated with biotinylated peptide
Description: Biotinylated peptides were used to functionalize the 605ITK streptavidin qdots (Invitrogen, Carlsbad, Calif.) according to the manufacturer's instructions.
Streptavidin ITK-605 quantum dots (Invitrogen, Carlsbad, Calif.) were functionalized with biotinylated peptides by incubation with 100 fold molar excess of peptide followed by removal of free peptide by dialysis.

[1] = system: PPC1 prostate cancer cells; assay: T7 phage binding and internalization on cultured PPC1 cells; assay type: cell-based, human; conditions: for phage binding to and internalization into PPC1 cells: peptide displayed at C-terminus of T7 phage coat protein, binding at 4° C., internalization at 37° C. with pH 2.5 wash; for effect of trypsin treatment of phage on binding to PPC1 cells: peptide-displaying phage treated with trypsin before cell binding
Description: (§1) To measure phage binding, 10^6 cells in binding buffer (DMEM containing 1% BSA) were incubated with 10^9 pfu/ml of T7 phage for 1 hour at 4° C. The cells were washed 4 times with the binding buffer, lysed in LB bacterial growth medium containing 1% NP-40, and titrated. Phage internalization assays used the same procedure, except that the cells were incubated with the phage at 37° C., and that an acidic buffer (500 mM sodium chloride, 0.1 M glycine, 1% BSA, pH 2.5) was used instead of binding buffer in the second wash.
Inhibitors of phage binding and internalization (heparin, chondroitin, glycocalyx removal enzymes, endocytosis inhibitors, free peptides, quantum dots and UV-inactivated phage) were added to the cells 20 minutes prior to incubation with phage. Endocytosis inhibitors used in this study were the following: nystatin (50 μg/ml), genistein (100 μg/ml), chlorpromazine (5 μg/ml), 5-(N-ethyl-N-isopropyl)amiloride (100 μM), wortmannin (10 μM).
M21 melanoma cells were transiently transfected with these constructs using lipofectamine according to manufacturer's instructions (Invitrogen, Carlsbad, Calif.). Protease treatment of phage and qdots. 10^9 phage particles or 50 μl of peptide-coated qdots phage were treated with 50 iu of uPA, 25 μg of crystalline trypsin, 50 iu of thrombin, or 25 μg of collagenase type I (all Sigma, St. Louis, Mo.).

[2] = Stability of methylated iRGD peptides against proteolysis; assay type: in vitro ADME; conditions: peptide bond protected by C-methylation or N-methylation
NRP-1 [3] = biological target: T1, NRP-1 (Homo sapiens, UniProt O14786); assay: Affinity chromatography of PPC-1 tumor extracts on immobilized RPARPAR peptide; assay type: binding; conditions: PPC-1 tumor extract; confirmed by immunoblotting
T1 construct: from tissue; host or cells: orthotopic PPC-1 prostate tumor xenografts grown in BALB/c athymic nude mice
Description: PPC-1 tumors were lysed in PBS containing 200 mM n-octyl-beta-D-glucopyranoside, followed by incubation with RPARPAR (SEQ ID NO:2)-coated Sulfolink-beads (Pierce, Rockford, Ill.) and elution in lysis buffer containing 2 mM free RPARPAR (SEQ ID NO:2) peptide. Gel fragments excised from silver stained gel of eluted fractions were subjected to MALDI-TOF mass spectrometry at the Burnham Institute for Medical Research Proteomics Resource.
Orthotopic PPC-1 tumors were homgenized in PBS containing 400 mM n-octyl-beta-D-glucopyranoside, 1 mM MgSO4, 1 mM MnCl2, 1 mM CaCl2) and 1 tablet/5 ml of EDTA-free protease inhibitors cocktail (Sigma, St. Louis, Mo.). After 6 hours of extraction on a rotating platform at 4° C., the lysate was cleared by centrifugation (20 minutes at 14,000 rpm in refrigerated microcentrifuge) and loaded to an affinity column prepared by coupling cysteine-tagged RPARPAR (SEQ ID NO:2) peptide to Sulfolink coupling gel according to the manufacturer's instructions (Pierce, Rockford, Ill.). After overnight binding, the column was washed with a column wash buffer containing 200 mM n-octyl-beta-D-glucopyranoside, but otherwise identical to the lysis buffer, followed by elution with 2 mM free RPARPAR (SEQ ID NO:2) peptide in the same buffer. […]

NRP-1 [4] = biological target: T2, NRP-1 (Homo sapiens, UniProt O14786, E348A/S346A/T349A); assay: RPARPAR binding and internalization in M21 melanoma cells with or without NRP-1 expression; assay type: cell-based; conditions: triple mutation of VEGF-165 binding site in b1 domain
T2 construct: expressed in transfected cells; host or cells: M21 melanoma cells, transient lipofectamine transfection
Description: as §1, with “For biopanning and phage binding studies (Hoffman, J. A. et al., 2004), cultured cells were grown to confluence and harvested with trypsin and mouse organs were dissociated using Medimachine (BD Biosciences, San Jose, Calif.). To” for “To”
(§2) Expression construct of the wild type NRP-1 cDNA in pcDNA3.1(+) was a kind gift of Dr. Michael Klagsbrun. Site directed mutagenesis was used to generate triple mutation of the VEGF-165 binding site in the b1 domain of NRP-1 (S346A-E348A-349A) by replacing […] (SEQ ID NO:29; encoding amino acids SKET) with […] (SEQ ID NO:30; encoding AKAA).
(§3) M21 melanoma cells were transiently transfected with these constructs using lipofectamine according to manufacturer's instructions (Invitrogen, Carlsbad, Calif.). Protease treatment of phage and qdots. […]

NRP-1 [5] = assay: as above; assay type: cell-based; conditions: M21 cells, which do not express NRP-1
Description: as §1, with “For biopanning and phage binding studies (Hoffman, J. A. et al., 2004), cultured cells were grown to confluence and harvested with trypsin and mouse organs were dissociated using Medimachine (BD Biosciences, San Jose, Calif.). To” for “To”
as §2, §3

[6] = system: orthotopic MIA PaCa-2 human pancreatic carcinoma xenografts; assay: In vivo systemic permeability assay with Evans Blue, pancreatic tumor xenografts; parameters: species or system mice; conditions: 100 nmol (or 100 μg) peptide 5 min after Evans Blue, tissues collected 30 min later
Description: FIGS. 5A and 5B show tumor-specific entry of Evans Blue (albumin) into extravascular tumor tissue in iRGD-injected mice. iRGD is SEQ ID NO:3. iRGDD is SEQ ID NO:4. Mice bearing orthotopically transplanted pancreatic or breast cancer xenografts were injected with […] of Evans Blue, followed 5 min later by 100 μg of iRGD peptide in PBS, PBS alone, or a control peptide. Tumors and tissues were collected 30 min. later and examined for dye content. […] About 4 times more dye accumulated in the iRGD-treated tumors than in control tumors. The control peptides included non-CendR RGD peptides.
FIGS. 9A-9D show a tumor-specific entry of Evans Blue into extravascular tumor tissue in iRGD-injected mice. iRGD is SEQ ID NO:3. iRGDD is SEQ ID NO:4. […] (FIGS. 9B to 9D) Quantification of Evans Blue in the pancreatic tumors and tissues. […]
Five min later, the mice received an intravenous injection with 100 μl of PBS with or without iRGD or control peptides at various concentrations. […] For Evans Blue quantification, the dye was extracted from tissues using N,N-dimethylformamide for 24 hours at 37° C. and the dye content was quantified by measuring the absorbance at 600 nm with a spectrophotometer. […] Quantification of the positive area in immunohistochemically stained sections, and total amount of antibodies within the tissues are described elsewhere in this manuscript.

orthotopic 22Rv1 tumors = assay: 22Rv1 xenograft treatment with DOX-liposomes; assay type: in vivo, mice; conditions: daily i.v. 1 mg DOX/kg + 2 μmol/kg peptide, 17 days, tumor weight
Description: (FIGS. 14A and 14B) Nude mice bearing orthotopic 22Rv1 human prostate tumors were intravenously injected with DOX-liposomes (3 mg DOX/kg) followed 5 min later by 100 nmol iRGD or PBS. Tumors and tissues were collected 3 hours later. In (FIG. 14A), the tumors were sectioned and stained with an anti-CD31 antibody. The doxorubicin is represented by the light specs that look like four halos in the left panel. Scale bars=200 μm, n=3. In (FIG. 14B), DOX in the tissues was quantified. […] The tumors were harvested and weighed after 17 days of treatment. The number of mice in each group was 5. One of 3 experiments that gave similar results is shown. (FIG. 14D) TUNEL staining was performed immunohistochemically on tissue sections of the tumor and heart samples from the treatment study, and quantified for positivity. Statistical analyses were performed with Student's r-test in (FIG. 14B), and ANOVA in (FIG. 14C) and (FIG. 14D); error bars, s.e.m.; n.s., not significant; single asterisk, p<0.05; double asterisk, p<0.01; triple asterisk, p<0.001.
Nude mice bearing 2 week-old orthotopic 22Rv1 tumors received daily intravenous injections of DOX-liposomes ([…]) or PBS, combined with 2 μmol/kg iRGD or PBS. The tumors were harvested and weighed after 17 days of treatment. The number of animals in each group was 13. […]

T2 sequence (O14786 22-923 S346A/E348A/T349A): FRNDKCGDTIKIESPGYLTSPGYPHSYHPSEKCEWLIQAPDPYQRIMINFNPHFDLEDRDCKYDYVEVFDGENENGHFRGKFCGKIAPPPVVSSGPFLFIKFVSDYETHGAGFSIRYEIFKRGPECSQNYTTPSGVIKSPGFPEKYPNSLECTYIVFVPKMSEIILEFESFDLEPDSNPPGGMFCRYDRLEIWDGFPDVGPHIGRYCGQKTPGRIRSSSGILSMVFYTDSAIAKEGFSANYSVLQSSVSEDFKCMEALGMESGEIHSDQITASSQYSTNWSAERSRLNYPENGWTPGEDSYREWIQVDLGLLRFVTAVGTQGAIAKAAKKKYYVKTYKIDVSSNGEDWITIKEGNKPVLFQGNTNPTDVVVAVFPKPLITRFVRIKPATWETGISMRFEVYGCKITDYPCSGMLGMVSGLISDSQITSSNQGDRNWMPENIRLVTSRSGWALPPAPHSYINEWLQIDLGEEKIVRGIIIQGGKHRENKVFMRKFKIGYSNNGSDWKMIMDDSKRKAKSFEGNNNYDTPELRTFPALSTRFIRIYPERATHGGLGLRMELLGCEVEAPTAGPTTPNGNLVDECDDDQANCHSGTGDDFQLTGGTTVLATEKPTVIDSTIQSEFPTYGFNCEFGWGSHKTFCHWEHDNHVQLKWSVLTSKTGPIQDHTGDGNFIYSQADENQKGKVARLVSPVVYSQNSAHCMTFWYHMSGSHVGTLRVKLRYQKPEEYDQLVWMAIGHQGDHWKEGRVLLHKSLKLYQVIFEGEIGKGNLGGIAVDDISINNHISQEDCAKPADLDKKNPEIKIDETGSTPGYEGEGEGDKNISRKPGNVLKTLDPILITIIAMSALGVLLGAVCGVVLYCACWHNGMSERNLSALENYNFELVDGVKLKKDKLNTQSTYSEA
T1 sequence (O14786 22-923): as the sequence (O14786 22-923 S346A/E348A/T349A) above, with A325S, A327E, A328T counted along it

## rparpar ([dR][dP][dA][dR][dP][dA][dR]; also: on quantum dots) [D-rparpar, RPARPAR peptide comprised of D-amino acids, on quantum dots]
live, unfixed cells
  binding and uptake of peptide-functionalized quantum dots: greatly reduced ability to trigger uptake of quantum dots

## RPARPARA
[1]
  phage binding to and internalization into PPC1 cells: abolished cell binding and internalization
  effect of trypsin treatment of phage on binding to PPC1 cells: restored PPC-1 cell binding

## TKPPR [enhanced tuftsin, reference compound]
[1]
  phage binding to and internalization into PPC1 cells: bound to and were taken up by PPC-1 cells

## C(CMe)RGDKGPDC
[2]
  stability against proteolysis: stable against unwanted proteolysis

## RPARPAR [prototypic CendR peptide]
[1]; endocytosis inhibitors added 20 minutes before phage
  effect of inhibitors of cell internalization pathways on peptide-mediated internalization: None of the available inhibitors of the various cell internalization pathways inhibited internalization
[1]; unlabeled peptide included in the binding buffer
  effect of unlabeled peptide on binding and uptake of VEGF-C7, enhanced tuftsin or A7R phage by PPC-1 cells: both activities were reduced
NRP-1 [3]
  protein eluted from immobilized peptide with free peptide: 130-kDa protein, identified by MALDI-TOF mass spectroscopy as NRP-1
NRP-1 [4]
  binding by M21 cells transfected with NRP-1 binding pocket mutant: did not confer
NRP-1 [5]
  binding and internalization by M21 melanoma cells: do not bind nor internalize

## CRGDC [non-internalizing, non-CendR RGD peptide, reference compound]
[1]
  effect of trypsin treatment of phage on binding to PPC1 cells: no effect

## cyclo(-RGDfK-)
[6]
  Evans Blue leakage/accumulation in tumor (vascular permeability effect): inactive
Orthotopic 22Rv1 tumors
  anti-tumor effect of DOX-liposomes 1 mg DOX/kg combined with peptide: failed to enhance the effect of the drug

## ATWLPPR [A7R, reference compound]
[1]
  phage binding to and internalization into PPC1 cells: bound to and were taken up by PPC-1 cells

## CR(NMe)GDKGPDC
[2]
  stability against proteolysis: stable against unwanted proteolysis

## CDCRGDCFC [RGD-4C, reference compound]
[1]
  effect of trypsin treatment of phage on binding to PPC1 cells: no effect
[6]
  Evans Blue leakage/accumulation in tumor (vascular permeability effect): inactive
